21 compounds from patent US20240174674A1, “NITROGEN-CONTAINING POLYCYCLIC FUSED RING COMPOUND, PHARMACEUTICAL COMPOSITION THEREOF, PREPARATION METHOD THEREFOR, AND USE THEREOF” (APPLIED PHARMACEUTICAL SCIENCE, INC., priority 2021, published 2024) can be followed below.

pIC50: −log10 of the molar value.

The experiment addresses RET G810R (Homo sapiens (Human), UniProt P07949, G810R). Kind of experiment: HTRF KinEASE-TK kinase activity test, RET G810R. To be noted: for pIC50: read-out: RET G810R IC50, HTRF kinase assay; for inhibitory activity against RET G810R relative to that of selpercatinib (LOXO-292): fold versus selpercatinib (LOXO-292).

Chain of RET G810R (P07949 29-1114 G810R): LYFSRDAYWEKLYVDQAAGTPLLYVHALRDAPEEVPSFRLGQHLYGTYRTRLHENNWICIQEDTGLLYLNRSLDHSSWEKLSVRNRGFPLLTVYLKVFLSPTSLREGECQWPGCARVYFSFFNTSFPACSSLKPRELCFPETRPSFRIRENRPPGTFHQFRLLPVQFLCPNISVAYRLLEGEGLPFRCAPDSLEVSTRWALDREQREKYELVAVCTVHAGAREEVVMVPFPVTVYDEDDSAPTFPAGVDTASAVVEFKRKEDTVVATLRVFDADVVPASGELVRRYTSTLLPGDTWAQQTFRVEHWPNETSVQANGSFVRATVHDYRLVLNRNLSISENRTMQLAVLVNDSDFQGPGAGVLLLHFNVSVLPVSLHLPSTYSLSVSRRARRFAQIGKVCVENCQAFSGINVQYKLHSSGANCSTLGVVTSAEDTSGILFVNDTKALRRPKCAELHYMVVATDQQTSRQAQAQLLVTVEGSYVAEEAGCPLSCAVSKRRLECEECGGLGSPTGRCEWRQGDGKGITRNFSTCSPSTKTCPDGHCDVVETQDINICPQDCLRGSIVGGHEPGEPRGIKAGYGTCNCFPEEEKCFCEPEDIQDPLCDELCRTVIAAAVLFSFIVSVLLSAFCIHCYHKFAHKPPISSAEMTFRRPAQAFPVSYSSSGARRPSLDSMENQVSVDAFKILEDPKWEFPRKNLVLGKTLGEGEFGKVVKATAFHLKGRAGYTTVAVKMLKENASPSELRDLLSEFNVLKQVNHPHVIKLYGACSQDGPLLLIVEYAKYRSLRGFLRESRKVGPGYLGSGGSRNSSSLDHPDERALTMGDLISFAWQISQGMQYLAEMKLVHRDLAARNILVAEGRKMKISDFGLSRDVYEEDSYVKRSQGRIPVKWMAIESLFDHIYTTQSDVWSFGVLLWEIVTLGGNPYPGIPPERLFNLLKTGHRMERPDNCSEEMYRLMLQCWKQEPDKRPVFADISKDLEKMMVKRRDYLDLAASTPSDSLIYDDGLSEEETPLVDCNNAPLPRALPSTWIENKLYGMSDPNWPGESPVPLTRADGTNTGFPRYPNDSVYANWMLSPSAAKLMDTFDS

On to `CCOc1cc(-c2ccc(N3CC[C@H](NC(=O)c4ncccc4F)[C@H](O)C3)nc2)c2c3cn[nH]c3nn2c1` [Compound 286, N-((3R,4S)-1-(5-(6-ethoxy-1H-pyrazolo[3′,4′:3,4]pyrazolo[1,5-α]pyridin-4-yl)pyridin-2-yl)piperidin-3-hydroxypiperidin-4-yl)-3-fluoropicolinamide], for which the pIC50 (usually the IC50 on a negative log10 scale, so that one unit is a factor of ten) was 7.99.
For the compound `CCOc1cc(-c2ccc(N3C[C@@H]4[C@H](C3)[C@@H]4NC(=O)c3c(F)cccc3Cl)nc2)c2c3cn[nH]c3nn2c1` [Compound 172, 2-chloro-N-((1R,5S,6R)-3-(5-(6-ethoxy-1H-pyrazolo[3′,4′:3,4]pyrazolo[1,5-α]pyridin-4-yl)pyridin-2-yl)-3-azabicyclo[3.1.0]hexan-6-yl)-6-fluorobenzamide], the pIC50 was 8.09.
In the case of `CCOc1cc(-c2ccc(N3CC[C@H](NC(=O)c4cc(F)ccc4Cl)[C@H](O)C3)nc2)c2c3cn[nH]c3nn2c1` [Compound 276, 2-chloro-N-((3R,4S)-1-(5-(6-ethoxy-1H-pyrazolo[3′,4′:3,4]pyrazolo[1,5-α]pyridin-4-yl)pyridin-2-yl)-3-hydroxypiperidin-4-yl)-5-fluorobenzamide], the “inhibitory activity against RET G810R relative to that of selpercatinib (LOXO-292)” value is reported as at least 10 times and the pIC50 was 9.15.
Regarding `CCOc1cc(-c2cnc(N3CC[C@H](NC(=O)c4c(F)cccc4Cl)[C@@H](O)C3)cn2)c2c3cn[nH]c3nn2c1` [Compound 51], the pIC50 is 8.37.
Consider `CCOc1cc(-c2ccc(N3CC[C@H](NC(=O)c4cc(F)ccc4F)[C@H](O)C3)nc2)c2c3cn[nH]c3nn2c1` [Compound 273, N-((3R,4S)-1-(5-(6-ethoxy-1H-pyrazolo[3′,4′:3,4]pyrazolo[1,5-α]pyridin-4-yl)pyridin-2-yl)-3-hydroxypiperidin-4-yl)-2,5-difluorobenzamide], for which the “inhibitory activity against RET G810R relative to that of selpercatinib (LOXO-292)” value was at least 10 times and the pIC50 is 8.74.
`CCOc1cc(-c2ccc(N3CC[C@H](NC(=O)c4c(C)cccc4Cl)[C@@H](N)C3)nc2)c2c3cn[nH]c3nn2c1` [Compound 48, N-((3S,4S)-3-amino-1-(5-(6-ethoxy-1H-pyrazolo[3′,4′:3,4]pyrazolo[1,5-α]pyridin-4-yl)pyridin-2-yl)piperidin-4-yl)-2-chloro-6-methylbenzamide]: the “inhibitory activity against RET G810R relative to that of selpercatinib (LOXO-292)” value is at least 10 times and the negative logarithm of the IC50 (pIC50) is 8.54.
For the compound `CCOc1cc(-c2ccc(N3CC[C@H](NC(=O)c4c(F)cccc4F)[C@H](O)C3)nc2)c2c3cn[nH]c3nn2c1` [Compound 233], the “inhibitory activity against RET G810R relative to that of selpercatinib (LOXO-292)” value is reported as at least 10 times and the pIC50 was 9.02.
For the compound `CCOc1cc(-c2ccc(N3CCC(CN4CCOCC4)(NC(=O)CC(C)C)CC3)nc2)c2c3cn[nH]c3nn2c1` [Compound 29], the pIC50 is 8.06.
In the case of `CCOc1cc(-c2ccc(N3CCC(CN4CCCC4)(C(=O)NCC(C)C)CC3)nc2)c2c3cn[nH]c3nn2c1` [Compound 37, 4-(pyrrolidin-1-ylmethyl)-1-(5-(6-ethoxy-1H-pyrazolo[3′,4′:3,4]pyrazolo[1,5-α]pyridin-4-yl)pyridin-2-yl)-N-isobutylpiperidine-4-carboxamide], the pIC50 is 8.20.
`COc1ccc(CN2C3CC2CN(c2ccc(-c4cc(C(=O)O)cn5nc6[nH]ncc6c45)cn2)C3)cn1` [Compound 239, 4-(6-(6-((6-methoxypyridin-3-yl)methyl)-3,6-diazabicyclo[3.1.1]heptan-3-yl)pyridin-3-yl)-1H-py razolo[3′,4′:3,4]pyrazolo[1,5-α]pyridine-6-carboxylic acid]: the pIC50 was 7.47.
Regarding `CCOc1cc(-c2cnc(N3CCC(C)(NC(=O)c4nc(C)ccc4Cl)CC3)cn2)c2c3cn[nH]c3nn2c1` [Compound 56], the negative-log IC50 (pIC50) was 7.63.
In the case of `CCOc1cc(-c2ccc(N3CCC(Oc4ccc(OC)nn4)CC3)nc2)c2c3cn[nH]c3nn2c1` [Compound 8], the pIC50 was 8.06.
As to `CCOc1cc(-c2ccc(N3CCC(CO)(NC(=O)c4cc(F)ccc4F)CC3)nc2)c2c3cn[nH]c3nn2c1` [Compound 150, N-(1-(5-(6-ethoxy-1H-pyrazolo[3′,4′:3,4]pyrazolo[1,5-α]pyridin-4-yl)pyridin-2-yl)-4-(hydroxymethyl)piperidin-4-yl)-2,5-difluorobenzamide], the pIC50 was 8.36.
Take `CCOc1cc([C@H]2CC[C@](OC)(C(=O)N[C@@H](C)c3ccc(-n4cc(F)cn4)nc3)CC2)c2c3cn[nH]c3nn2c1` [Compound 258, (1S,4R)-4-(6-ethoxy-1H-pyrazolo[3′,4′:3,4]pyrazolo[1,5-α]pyridin-4-yl)-N—((S)-1-(6-(4-fluoro-1H-pyrazol-1-yl)pyridin-3-yl)ethyl)-1-methoxycyclohexane-1-carboxamide]: the pIC50 was 8.00.
`CCOc1cc(-c2ccc(N3CCC4(CCCN4Cc4ccc(OC)nc4)CC3)nc2)c2c3cn[nH]c3nn2c1` [Compound 207, 6-ethoxy-4-(6-(1-((6-methoxypyridin-3-yl)methylene)-1,8-diazaspiro[4.5]octan-8-yl)pyridin-3-yl) -1H-pyrazolo[3′,4′:3,4]pyrazolo[1,5-α]pyridine]: the pIC50 is 7.31.
In the case of `CCOc1cc(-c2ccc(N3CC4COCC(C3)N4Cc3ccc(OC)nc3)nc2)c2c3cn[nH]c3nn2c1` [Compound 114, 7-(5-(6-ethoxy-1H-pyrazolo[3′,4′:3,4]pyrazolo[1,5-α]pyridin-4-yl)pyridin-2-yl)-9-((6-methoxypyridin-3-yl)methylene)-3-oxa-7,9-diazabicyclo[3.3.1]nonane], the “inhibitory activity against RET G810R relative to that of selpercatinib (LOXO-292)” value is at least 10 times and the pIC50 was 8.44.
As for `CCOc1cc(-c2ccc(N3CC[C@H](NC(=O)c4ncccc4C(F)(F)F)[C@H](O)C3)nc2)c2c3cn[nH]c3nn2c1` [Compound 284, N-((3R,4S)-1-(5-(6-ethoxy-1H-pyrazolo[3′,4′:3,4]pyrazolo[1,5-α]pyridin-4-yl)pyridin-2-yl)-3-hydroxypiperidin-4-yl)-3-(trifluoromethyl)picolinamide], the pIC50 was 8.38.
Regarding `CCOc1cc(-c2ccc(N3CCC(CN(C)C)(NC(=O)c4ncccc4Cl)CC3)nc2)c2c3cn[nH]c3nn2c1` [Compound 15, 3-chloro-N-(4-((2-dimethylamino)methyl)-1-(5-(6-ethoxy-1H-pyrazolo[3′,4′:3,4]pyrazolo[1,5-α]pyridin-4-yl)pyridin-2-yl)piperidin-4-yl)picolinamide], the “inhibitory activity against RET G810R relative to that of selpercatinib (LOXO-292)” value is at least 10 times and the negative-log IC50 (pIC50) was 8.82.
Regarding `CCOc1cc(-c2ccc(N3CC[C@H](NC(=O)c4ncccc4C(F)(F)F)[C@@H](O)C3)nc2)c2c3cn[nH]c3nn2c1` [Compound 45], the pIC50 was 8.28.
With `CCOc1cc(-c2ccc(N3C[C@H]4CN(Cc5ccc(OC)nc5)C[C@H]4C3)nc2)c2c3cn[nH]c3nn2c1` [Compound 152, 6-ethoxy-4-(6-((3aR,6aS)-5-((6-methoxypyridin-3-yl)methylene)-hexahydropyrrolo[3,4-c]pyrrol-2(1H)-yl)pyridin-3-yl)-1H-pyrazolo[3′,4′:3,4]pyrazolo[1,5-α]pyridine], the pIC50 is 8.39.
In the case of `CCOc1cc(-c2ccc(N3C4CCC3CN(Cc3ccc(OC)nc3)C4)nc2)c2c3cn[nH]c3nn2c1` [Compound 158, 6-ethoxy-4-(6-((1R,5S)-3-((6-methoxypyridin-3-yl)methyl)-3,8-diazabicyclo[3.2.1]octan-3-yl)pyridin-8-yl)-1H-pyrazolo[3′,4′:3,4]pyrazolo[1,5-α]pyrazole], the negative-log IC50 (pIC50) was 7.73.
